Measured values taken from PMC5617480 (Oncotarget, 2017).

System: telomeres/telomerase-related genes
Experiment: RT-qPCR array (Telomeres & Telomerase PCR Array)
Assay type: cell-based, human
Conditions: BEL-7404 cells, 10 μM, 24 h
Procedure: To determine the mechanism(s), we further explored the effect of complex 6 on the expression of telomeres/telomerase-related genes (such as TRF1, hTERT, TRF2, c-myc, and 53BP1) in the BEL-7404 model. Firstly, RT-qPCR array was used to determine mRNA levels of telomeres/telomerase-related gene expressions in BEL-7404 cells when the cells were treated with complex 6. […] Secondly, these telomerase-related genes were determined by western blot. […]
In addition, RNA
30.0 min at room temperature in the dark. Finally, the extraction, RT-PCR, and the selective binding to G4s by BEL-7404 cell cycle was determined with FACS Calibur complexes 4–6 was according to the our previous reported flow cytometer (BD) and analyzed using Cell Quest. […]
ME). Gene expression by a panel of genes for RT-Determination of caspase-3/9 activity by flow qPCR array cytometric analysis Differential expression of telomeres/telomerase-related genes was analyzed using the Telomeres &
Colorimetric analysis of caspase-9 and caspase-3 Telomerase PCR Array (RT2 Profiler™ PCR Array Human activation in BEL-7404 cells exposed to 10 μM of Telomeres & Telomerase, PAHS-010Z, SABioscience, complexes 4–6 for 24.0 h were carried out using the USA) obtained from Kangchen Bio-tech, Shanghai, China.
CaspGLOW™ Fluorescein Active Caspase-9/Caspase-3 RNA was extracted according to standard protocols and Staining Kit. The BEL-7404 cells treated with complexes converted to first strand cDNA using the RT2 First Strand 4–6 and the controlled BEL-7404 cells were harvested Kit. The template was added to an instrument specific, from RPMI 1640 medium with 10% FBS, in a density of ready-to-use RT2 SYBR Green qPCR Master Mix. The 1.0 × 10^6 cells per milliliter. These cells were washed with resulting mixture was added to the wells (25.0 μL/well) of PBS and centrifuged for 3 times, and were then mixed the PCR Array plate containing the telomere maintenance, with 500 μL culture. 1.0 μL of FITC-LEHD-FMK or/telomere-associated complexes, telomere regulation and FITC-DEVD-FMK were consequently added and other genes associated with telomeres gene-specific primer incubated for 2.0 h at 37 °C with 5% CO2. The BEL- sets (25 μL for 96-well plates) and PCR was performed.
7404 cells were then determined with a FACS AriaII flow The threshold cycle (Ct) values for all the genes on each cytometer equipped with a 488 nm argon laser. Results PCR Array were calculated using the instrument specific were represented as the percent change on the activity software and the fold-changes in gene expression for pair-comparing with the control group. wise comparison were calculated using the 2-ΔCt method.
Western blot assay TRAP Assay (TRAP-silver staining assay)
The BEL-7404 Cells were treated with the same as Each telomerase extract was prepared from BEL-the above for 24.0 h with complexes 4–6 (10 μM), and 7404 cells. A modified version of the TRAP assay was total proteins were extracted by lysis buffer RIPA. Then used. The PCR was performed in a final […] use BCA protein assay to measure concentrations of each reaction volume composed of reaction mix ([…]) sample. After electrophoresis on 10% PAGE-SDS gel containing pH 8.0 Tris-HCl (20.0 mM), deoxynucleotide and blotting, anti-mutp53, 53BP1, TRF1, TRF2, hTERT, triphosphates ([…]), BSA (20 mg/mL), primer

cis-[PtCl2(S-(–)-FOA)] [complex 6]
Fold Change, ABL1: 0.80 | Fold Change, ACD: 1.16 | Fold Change, ACTB: 0.76 | Fold Change, AKT1: 0.77 | Fold Change, ATM: 1.08 | Fold Change, ATP5C1: 1.19 | Fold Change, B2M: 1.15 | Fold Change, BCL2: 0.76 | Fold Change, BLM: 1.21 | Fold Change, CDK2: 0.80 | Fold Change, CHEK1: 1.13 | Fold Change, CHEK2: 1.23 | Fold Change, DCLRE1B: 0.81 | Fold Change, DCLRE1C: 1.20 | Fold Change, DKC1: 1.14 | Fold Change, EGF: 1.11 | Fold Change, EME1: 1.26 | Fold Change, ERCC1: 1.00 | Fold Change, ERCC4: 1.22 | Fold Change, GAPDH: 0.97 | Fold Change, GAR1: 0.95 | Fold Change, HAT1: 1.13 | Fold Change, HNRNPA2B1: 1.06 | Fold Change, HNRNPD: 0.95 | Fold Change, HPRT1: 1.14 | Fold Change, HSP90AA1: 1.35 | Fold Change, HSPA1L: 1.65 | Fold Change, IGF1: 0.02 | Fold Change, KRAS: 0.88 | Fold Change, KRIT1: 1.12 | Fold Change, MEN1: 1.14 | Fold Change, MRE11A: 1.41 | Fold Change, MSH2: 0.90 | Fold Change, MSH3: 0.66 | Fold Change, MUS81: 1.55 | Fold Change, MYC: 0.75 | Fold Change, NBN: 0.79 | Fold Change, NCL: 1.04 | Fold Change, NHP2: 1.46 | Fold Change, NOP10: 0.82 | Fold Change, OBFC1: 1.32 | Fold Change, PARP1: 1.02 | Fold Change, PAX8: 9.91 | Fold Change, PIF1: 0.84 | Fold Change, PINX1: 1.13 | Fold Change, PLK1: 0.72 | Fold Change, POT1: 0.87 | Fold Change, PPARG: 1.08 | Fold Change, PPP2R1A: 0.88 | Fold Change, PPP2R1B: 0.68 | Fold Change, PRKCA: 1.12 | Fold Change, PRKCB: 0.48 | Fold Change, PRKDC: 0.83 | Fold Change, PTGES3: 1.07 | Fold Change, PURA: 1.07 | Fold Change, RAD17: 1.11 | Fold Change, RAD50: 1.44 | Fold Change, RAP1A: 0.90 | Fold Change, RAPGEF1: 0.97 | Fold Change, RASSF1: 1.26 | Fold Change, RB1: 0.59 | Fold Change, RFC1: 1.33 | Fold Change, RIF1: 1.67 | Fold Change, RPLP0: 1.05 | Fold Change, RTEL1: 0.39 | Fold Change, SART1: 1.50 | Fold Change, SIRT2: 0.84 | Fold Change, SIRT6: 1.89 | Fold Change, SLX4: 0.87 | Fold Change, SMAD3: 0.65 | Fold Change, SMG6: 1.05 | Fold Change, SP1: 0.70 | Fold Change, SSB: 1.14 | Fold Change, SUN1: 1.04 | Fold Change, TEP1: 1.73 | Fold Change, TERF1: 1.39 | Fold Change, TERF2: 0.99 | Fold Change, TERF2IP: 1.47 | Fold Change, TERT: 0.89 | Fold Change, TGFB1: 1.46 | Fold Change, TINF2: 1.14 | Fold Change, TNKS: 1.12 | Fold Change, TNKS2: 1.02 | Fold Change, TP53: 1.45 | Fold Change, TP53BP1: 1.18 | Fold Change, TPP1: 1.07 | Fold Change, WRAP53: 0.94 | Fold Change, XRCC5: 0.76 | Fold Change, XRCC6: 1.15
